We go through 19 molecules from patent US9683019B2, “Cyclic polypeptides for the treatment of heart failure” (priority 2013, dated 2017).

Molecules are shown by their SMILES. Where a SMILES comes first, the peptide text is derived from it. Bridges are numbered along the chain shown (N, C = ends). [ ]: non-standard residue; d: D form. The star is where a group is joined. 2Nal = N[C@@H](Cc1ccc2ccccc2c1)C(=O)O; pGlu = O=C1CC[C@@H](C(=O)O)N1; NHPhenethyl = c1ccc(CCN*)cc1; d(hCys) = N[C@H](CCS)C(=O)O; dNle = CCCC[C@@H](N)C(=O)O; dNva = CCC[C@@H](N)C(=O)O; hCys = N[C@@H](CCS)C(=O)O; Nle = CCCC[C@H](N)C(=O)O; dAbu = CC[C@@H](N)C(=O)O Some results are limits rather than exact numbers.

The first series can be described thus: Surrogate Activity-Based Plasma Stability Assay. The following applies: rat. In kind it is in vitro ADME. From the text:
Surrogate Activity-Based Plasma Stability Assay:
2) Calculate slope of value above and […]
Regarding `CCCC[C@@H](NC(=O)[C@@H]1CCCN1C(=O)CNC(=O)[C@H](CCCCN)NC(=O)[C@@H]1CSSC[C@H](NC(=O)[C@H](CCCNC(=N)N)NC(=O)[C@@H]2CCC(=O)N2)C(=O)N[C@@H](CCCNC(=N)N)C(=O)N[C@@H](CC(C)C)C(=O)N[C@@H](CO)C(=O)N1)C(=O)N[C@H](C)C(=O)N[C@H](Cc1ccccc1)C(=O)O` [Example 21, pE-R-C*-R-L-S-C*-K-G-P-(D-Nle)-a-f-OH] ([pGlu]RCRLSCKGP[dNle][dA][dF]-OH; disulfide 3-7), the half-life was more than 1000 min.
`CCCC[C@@H](NC(=O)[C@@H]1CCCN1C(=O)[C@@H](C)NC(=O)[C@H](CCCCN)NC(=O)[C@@H]1CSSC[C@H](NC(=O)[C@H](CCCNC(=N)N)NC(=O)[C@@H]2CCC(=O)N2)C(=O)N[C@@H](CCCNC(=N)N)C(=O)N[C@@H](CC(C)C)C(=O)N[C@@H](CO)C(=O)N1)C(=O)N[C@H](C)C(=O)N[C@H](Cc1ccccc1)C(=O)O` [Example 23, pE-R-C*-R-L-S-C*-K-a-P-(D-Nle)-a-f-OH] ([pGlu]RCRLSCK[dA]P[dNle][dA][dF]-OH; disulfide 3-7) gave a half-life of 3160 min.
The molecule `CCCC[C@H](NC(=O)[C@@H]1CCCN1C(=O)CNC(=O)[C@H](CCCCN)NC(=O)[C@@H]1CSSC[C@H](NC(C)=O)C(=O)N[C@@H](CCCNC(=N)N)C(=O)N2CCC[C@H]2C(=O)N[C@@H](CCCNC(=N)N)C(=O)N[C@@H](CC(C)C)C(=O)N[C@@H](CO)C(=O)N1)C(=O)N1CCC[C@H]1C(N)=O` [Example 4, Ac-C*-R-P-R-L-S-C*-K-G-P-Nle-P-NH2] (Ac-CRPRLSCKGP[Nle]P-NH2; disulfide 1-7) showed a half-life of 506 min.
In the case of `CC(=O)N[C@@H]1CCSSCC[C@@H](C(=O)N[C@@H](CCCCN)C(=O)NCC(=O)N2CCC[C@H]2C(=O)N[C@H](Cc2ccccc2)C(=O)N[C@H](C)C(=O)N[C@H](Cc2ccccc2)C(=O)O)NC(=O)[C@H](CO)NC(=O)[C@H](CC(C)C)NC(=O)[C@H](CCCNC(=N)N)NC(=O)[C@@H]2CCCN2C(=O)[C@H](CCCNC(=N)N)NC1=O` [Example 18, Ac-(D-hC)*-R-P-R-L-S-(hC)*-K-G-P-f-a-f-OH] (Ac-[d(hCys)]RPRLS[hCys]KGP[dF][dA][dF]-OH; disulfide 1-7), the half-life came to 50 min.
Take `CCCC[C@@H](NC(=O)[C@@H]1CCCN1C(=O)CNC(=O)[C@H](CCCCN)NC(=O)[C@@H]1CSSC[C@H](NC(=O)[C@@H]2CCCN2C(=O)[C@H](CCCNC(=N)N)NC(=O)[C@@H]2CCC(=O)N2)C(=O)N[C@@H](CC(C)C)C(=O)N[C@@H](CO)C(=O)N1)C(=O)N[C@H](C)C(=O)N[C@H](Cc1ccccc1)C(=O)O` [Example 33, pE-R-P-C*-L-S-C*-K-G-P-(D-Nle)-a-f-OH] ([pGlu]RPCLSCKGP[dNle][dA][dF]-OH; disulfide 4-7): the half-life was more than 1000 min.
`CC(C)C[C@@H]1NC(=O)[C@H](CCCNC(=N)N)NC(=O)[C@@H](NC(=O)[C@H](CCCNC(=N)N)NC(=O)[C@@H]2CCC(=O)N2)CSSCC[C@H](C(=O)N[C@@H](CCCCN)C(=O)NCC(=O)N2CCC[C@H]2C(=O)N[C@H](Cc2ccccc2)C(=O)N[C@H](C)C(=O)N[C@H](Cc2ccccc2)C(=O)O)NC(=O)[C@H](CO)NC1=O` [Example 26, pE-R-C*-R-L-S-(D-hC)*-K-G-P-f-a-f-OH] ([pGlu]RCRLS[d(hCys)]KGP[dF][dA][dF]-OH; disulfide 3-7) showed a half-life of 52 min.
Regarding `CCCC[C@@H](NC(=O)[C@@H]1CCCN1C(=O)CNC(=O)[C@H](CCCCN)NC(=O)[C@H]1CCSSC[C@@H](NC(=O)[C@@H]2CCCN2C(=O)[C@H](CCCNC(=N)N)NC(=O)[C@@H]2CCC(=O)N2)C(=O)N[C@@H](CC(C)C)C(=O)N[C@@H](CO)C(=O)N1)C(=O)N[C@H](C)C(=O)N[C@H](Cc1ccc(O)cc1)C(=O)O` [Example 37, pE-R-P-c*-L-S-(D-hC)*-K-G-P-(D-Nle)-a-y-OH] ([pGlu]RP[dC]LS[d(hCys)]KGP[dNle][dA][dY]-OH; disulfide 4-7), the half-life amounted to 47 min.
Turning to `CCCC[C@H](NC(=O)[C@@H]1CCCN1C(=O)CNC(=O)[C@H](CCCCN)NC(=O)[C@@H]1CSSC[C@H](NC(=O)[C@H](CCCNC(=N)N)NC(=O)[C@@H]2CCC(=O)N2)C(=O)N[C@@H](CCCNC(=N)N)C(=O)N[C@@H](CC(C)C)C(=O)N[C@@H](CO)C(=O)N1)C(=O)N1CCC[C@H]1C(=O)N[C@@H](Cc1ccccc1)C(=O)O` [Example 20, pE-R-C*-R-L-S-C*-K-G-P-Nle-P-F-OH] ([pGlu]RCRLSCKGP[Nle]PF-OH; disulfide 3-7), the half-life came to 11.9 min.
In turn, `CCCC[C@H](NC(=O)[C@@H]1CCCN1C(=O)CNC(=O)[C@H](CCCCN)NC(=O)[C@@H]1CSSC[C@H](NC(C)=O)C(=O)N[C@@H](CCCNC(=N)N)C(=O)N2CCC[C@H]2C(=O)N[C@@H](CCCNC(=N)N)C(=O)N[C@@H](CC(C)C)C(=O)N[C@@H](CO)C(=O)N1)C(=O)N1CCC[C@H]1C(=O)N[C@@H](Cc1ccccc1)C(=O)O` [Example 1, Ac-C*-R-P-R-L-S-C*-K-G-P-Nle-P-F-OH] (Ac-CRPRLSCKGP[Nle]PF-OH; disulfide 1-7) showed a half-life of 8 min.
On the same count and under the same terms, the same measure for `CCCC[C@H](NC(=O)[C@@H]1CCCN1C(=O)CNC(=O)[C@H](CCCCN)NC(=O)[C@@H]1CSSC[C@H](NC(=O)[C@@H]2CCCN2C(=O)[C@H](CCCNC(=N)N)NC(=O)[C@@H]2CCC(=O)N2)C(=O)N[C@@H](CC(C)C)C(=O)N[C@@H](CO)C(=O)N1)C(=O)NCCc1ccccc1` [Example 31, pE-R-P-C*-L-S-C*-K-G-P-Nle-NH(Phenethyl)]: 43.1 min; for `CCCC[C@H](NC(=O)[C@@H]1CCCN1C(=O)CNC(=O)[C@H](CCCCN)NC(=O)[C@@H]1CSSC[C@H](NC(C)=O)C(=O)N[C@@H](CCCNC(=N)N)C(=O)N2CCC[C@H]2C(=O)N[C@@H](CCCNC(=N)N)C(=O)N[C@@H](CC(C)C)C(=O)N[C@@H](CO)C(=O)N1)C(=O)N1CCC[C@H]1C(=O)N[C@H](C)C(=O)O` [Example 8, Ac-C*-R-P-R-L-S-C*-K-G-P-Nle-P-a-OH] (Ac-CRPRLSCKGP[Nle]P[dA]-OH; disulfide 1-7): 662 min; for `CCCC[C@H](NC(=O)[C@@H]1CCCN1C(=O)CNC(=O)[C@H](CCCCN)NC(=O)[C@@H]1CSSC[C@H](NC(C)=O)C(=O)N[C@@H](CCCNC(=N)N)C(=O)N2CCC[C@H]2C(=O)N[C@@H](CCCNC(=N)N)C(=O)N[C@@H](CC(C)C)C(=O)N[C@@H](CO)C(=O)N1)C(=O)N1CCC[C@H]1C(=O)N[C@H](Cc1ccccc1)C(=O)O` [Example 10, Ac-C*-R-P-R-L-S-C*-K-G-P-Nle-P-f-OH] (Ac-CRPRLSCKGP[Nle]P[dF]-OH; disulfide 1-7): 57.4 min.
With `CCCC[C@H](NC(=O)[C@@H]1CCCN1C(=O)CNC(=O)[C@H](CCCCN)NC(=O)[C@H]1CSSC[C@@H](NC(C)=O)C(=O)N[C@@H](CCCNC(=N)N)C(=O)N2CCC[C@H]2C(=O)N[C@@H](CCCNC(=N)N)C(=O)N[C@@H](CC(C)C)C(=O)N[C@@H](CO)C(=O)N1)C(=O)N1CCC[C@H]1C(=O)N[C@@H](Cc1ccccc1)C(=O)O` [Example 14, Ac-c*-R-P-R-L-S-c*-K-G-P-Nle-P-F-OH] (Ac-[dC]RPRLS[dC]KGP[Nle]PF-OH; disulfide 1-7), the half-life came to 7.5 min.
On to `CCCC[C@H](NC(=O)[C@@H]1CCCN1C(=O)CNC(=O)[C@H](CCCCN)NC(=O)[C@@H]1CSSC[C@H](NC(C)=O)C(=O)N[C@@H](CCCNC(=N)N)C(=O)N2CCC[C@H]2C(=O)N[C@@H](CCCNC(=N)N)C(=O)N[C@@H](CC(C)C)C(=O)N[C@@H](CO)C(=O)N1)C(=O)N1CCC[C@H]1C(=O)NCCc1ccccc1` [Example 2, Ac-C*-R-P-R-L-S-C*-K-G-P-Nle-P-NH(Phenethyl)] (Ac-CRPRLSCKGP[Nle]P-NHPhenethyl; disulfide 1-7), for which the half-life was determined as 39 min.
`CCCC[C@H](NC(=O)[C@@H]1CCCN1C(=O)CNC(=O)[C@H](CCCCN)NC(=O)[C@@H]1CSSC[C@H](NC(C)=O)C(=O)N[C@@H](CCCNC(=N)N)C(=O)N2CCC[C@H]2C(=O)N[C@@H](CCCNC(=N)N)C(=O)N[C@@H](CC(C)C)C(=O)N[C@@H](CO)C(=O)N1)C(=O)N1CCC[C@H]1C(=O)N[C@@H](Cc1ccc2ccccc2c1)C(=O)O` [Example 5, Ac-C*-R-P-R-L-S-C*-K-G-P-Nle-P-Nal-OH] (Ac-CRPRLSCKGP[Nle]P[2Nal]-OH; disulfide 1-7) gave a half-life of 5 min.
On the same count and under the same terms, next, `CCCC[C@H](NC(=O)[C@@H]1CCCN1C(=O)CNC(=O)[C@H](CCCCN)NC(=O)[C@@H]1CSSC[C@H](NC(C)=O)C(=O)N[C@@H](CCCNC(=N)N)C(=O)N2CCC[C@H]2C(=O)N[C@@H](CCCNC(=N)N)C(=O)N[C@@H](CC(C)C)C(=O)N[C@@H](CO)C(=O)N1)C(=O)NCCc1ccccc1` [Example 11, Ac-C*-R-P-R-L-S-C*-K-G-P-Nle-NH(Phenethyl)] (Ac-CRPRLSCKGP[Nle]-NHPhenethyl; disulfide 1-7): 32.8 min; `CCCC[C@@H](NC(=O)[C@@H]1CCCN1C(=O)CNC(=O)[C@H](CCCCN)NC(=O)[C@@H]1CSSC[C@@H](NC(=O)[C@H](CCCNC(=N)N)NC(=O)[C@@H]2CCC(=O)N2)C(=O)N[C@@H](CCCNC(=N)N)C(=O)N[C@@H](CC(C)C)C(=O)N[C@@H](CO)C(=O)N1)C(=O)N[C@H](CC)C(=O)N[C@H](Cc1ccccc1)C(=O)O` [Example 27, pE-R-c*-R-L-S-C*-K-G-P-(D-Nle)-(D-abu)-f-OH] ([pGlu]R[dC]RLSCKGP[dNle][dAbu][dF]-OH; disulfide 3-7): 82 min.
In turn, `CCCC[C@@H](NC(=O)[C@@H]1CCCN1C(=O)CNC(=O)[C@H](CCCCN)NC(=O)[C@@H]1CCSSCC[C@@H](NC(=O)[C@@H]2CCCN2C(=O)[C@H](CCCNC(=N)N)NC(=O)[C@@H]2CCC(=O)N2)C(=O)N[C@@H](CC(C)C)C(=O)N[C@@H](CO)C(=O)N1)C(=O)N[C@H](CCC)C(=O)N[C@H](Cc1ccccc1)C(=O)O` [Example 38, pE-R-P-(D-hC)*-L-S-hC*-K-G-P-(D-Nle)-(D-Nva)-f-OH] ([pGlu]RP[d(hCys)]LS[hCys]KGP[dNle][dNva][dF]-OH; disulfide 4-7) registered a half-life of 41 min.

The series is the same for the next values; noted with them: rat, read-out: Surrogate activity-based Plasma stability t½.
Turning to `C=CCCCCCCCCCC(CCCCCCCCCCC(=O)O)(C(=O)O)C(=O)NCCOCCOCCOCCOCCOCCOCCOCCOCCOCCOCCOCCOCCOCCOCCOCCOCCOCCOCCOCCOCCOCCOCCOCCn1nnc2c1CC[C@H]1[C@@H](CC2)[C@H]1COC(=O)NCCCC[C@H](NC(=O)[C@@H]1CSSC[C@H](NC(=O)[C@@H]2CCCN2C(=O)[C@H](CCCNC(=N)N)NC(=O)[C@@H]2CCC(=O)N2)C(=O)N[C@@H](CC(C)C)C(=O)N[C@@H](CO)C(=O)N1)C(=O)NCC(=O)N1CCC[C@H]1C(=O)N[C@H](CCCC)C(=O)NCCc1ccccc1` (stereo partly shown) [Example 40], the half-life was more than 1000 min.
